Among the data in PMC11045764, “The dual coding of a single sex pheromone receptor in Asian honeybee Apis cerana” (Communications Biology, 2024) are EC50 values, retold here.

In assay [1] the test system is T1, AcerOr11.
T1 construct: gene Or11; AcerOr11 co-expressed with AcerOrco in Xenopus laevis oocytes; with AcerOrco
As to the kind of experiment: two-electrode voltage clamp in Xenopus oocytes (agonist, dose-response and I-V curves). The class given is cell-based, Apis cerana.

The test system of assay [2] is T1, AcerOr11. As to the kind of experiment: two-electrode voltage clamp in Xenopus oocytes (inverse currents; also inhibits 9-ODA-evoked currents). The class given is cell-based, Apis cerana. For orientation: Two-electrode voltage clamp is typically applied to oocytes expressing channels or transporters.

pEC50: −log10 of the molar value.

With `CC(=O)CCCCC/C=C/C(=O)O` [9-ODA, 9-oxo-(E)-2-decenoic acid], the pEC50 (commonly the EC50 on a negative log10 scale, so that one unit is a factor of ten) in the assay with AcerOr11 [1] was 9.46.
`COC(=O)c1ccc(O)cc1` [HOB, methyl p-hydroxybenzoate]: the negative-log EC50 (pEC50) with AcerOr11 [2] is 6.82.
